Results from patent US20220249599A1, “TREATMENT OF IMPLANTS WITH ENGINEERED ANTIMICROBIAL AMPHIPHILIC PEPTIDES” (priority 2018, published 2022).
Read-outs that look alike come from different tables or passages of the source. Ends that are not written are not given here.

Columns and labels:
[1] = test system: Acinetobacter baumannii ATCC 19606 (non-MDR); format: cell-based; details: Acinetobacter baumannii ATCC 19606 (non-MDR)
In short: (§1)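 CLSI broth microdilution; MHB II + 0.002% P80; 2-fold peptide series, top 32 mcg/mL final; 35° C., 16–20 hrs; MIC = lowest conc. with no visible growth. Peptides in PBS; SEQ ID NO:5 and 8 from DMSO stocks, 2.5% DMSO at first dilution.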

[2] = test system: Enterococcus faecalis ATCC 29212 (VSE; QC); format: cell-based; details: ATCC 29212
In short: as §1

[3] = test system: Enterococcus faecalis ATCC 700802 (V583 VRE); format: cell-based; details: ATCC 700802
In short: as §1

[4] = test system: Enterococcus faecium ATCC 51559 (VRE); format: cell-based; details: ATCC 51559
In short: as §1

[5] = test system: Escherichia coli ATCC 25922 (QC); format: cell-based; details: ATCC 25922
In short: as §1

[6] = test system: Escherichia coli ATCC 35218 (ESBL); format: cell-based; details: ATCC 35218
In short: as §1

[7] = test system: Escherichia coli ATCC BAA-2471 (NDM-1); format: cell-based; details: ATCC BAA-2471
In short: as §1

[8] = test system: Klebsiella pneumoniae ATCC BAA-1705 (KPC); format: cell-based; details: ATCC BAA-1705
In short: as §1

[9] = test system: Pseudomonas aeruginosa ATCC 27853 (non-MDR; QC); format: cell-based; details: ATCC 27853
In short: as §1

[10] = test system: Pseudomonas aeruginosa ATCC BAA-2109 (MDR); format: cell-based; details: ATCC BAA-2109
In short: as §1

[11] = test system: Staphylococcus aureus ATCC 29213 (MSSA; QC); format: cell-based; details: ATCC 29213
In short: as §1

[12] = test system: Staphylococcus aureus ATCC 43300 (MRSA); format: cell-based; details: ATCC 43300
In short: as §1

[13] = test system: Staphylococcus aureus NRS382 (USA100; HA-MRSA); format: cell-based; details: USA100
In short: as §1

[14] = test system: Streptococcus agalactiae ATCC 13813; format: cell-based
In short: as §1

[15] = test system: Streptococcus pneumoniae ATCC 49619 (QC); format: cell-based; details: ATCC 49619
In short: as §1

[16] = test system: Streptococcus pyogenes ATCC 49399; format: cell-based; details: ATCC 49399
In short: as §1

[17] = test system: Acinetobacter spp. (n = 104); format: cell-based
Protocol: (§2) The clinical isolates were obtained from USA hospitals. […] Plates were incubated at 35° C. overnight.

[18] = test system: Escherichia coli (n = 101); format: cell-based; details: n = 101
Protocol: as §2

[19] = test system: Klebsiella pneumoniae (n = 101); format: cell-based
Protocol: as §2

[20] = test system: Pseudomonas aeruginosa (n = 109); format: cell-based; details: P. aeruginosa colistin-resistant (COL^R) isolates, n 8
Protocol: as §2

[21] = mouse
Excerpt: Male CD-1 mice will be received from an approved vendor and allowed to acclimate for a minimum of two days. Fasting will be not required.
All dosing syringes will be weighed prior to and following dosing. IV doses will be administered as a slow bolus (over ˜30 seconds) via direct venipuncture of a tail vein. All animals will be observed at dosing and each scheduled collection. All abnormalities will be recorded.
Terminal blood samples will be collected via cardiac puncture following inhalation anesthesia.
Sample Processing and Storage: Blood samples will be collected into K2EDTA tubes and stored on wet ice. Whole blood will be processed to plasma by centrifugation (3500 rpm at 5° C.) within 30 minutes of collection. Plasma samples will be split into 2 equal aliquots and each transferred into 96 well plates (matrix tubes) and stored at −80° C. until analysis. Administered doses will be determined gravimetrically.
Prior to extraction, a known concentration of a mass-adjusted internal standard (IS) will be added to assess recovery and allow for quantitation. Purified samples will be further subjected to high-performance liquid chromatography (HPLC) using C18 300 or 130 angstrom columns prior to MS/MS analysis. Multiple charge states will be observed by MS, so MS/MS will be employed to enable multiple reaction monitoring (MRM) analyses to determine the most MRM transitions with the highest signal-to-noise gain. Compound plasma concentrations will be determined by comparing to and compensating with co-purified IS peak intensity and validated calibrated standard curves.
Pharmacokinetic parameters will be calculated using non-compartmental methods as implemented in the Phoenix® WinNonlin® ver. 6.3 comprehensive TK/PK analysis software program (Pharsight Corporation; Mountain View, Calif.) using an IV infusion model. Pharmacokinetic analysis will be conducted using a 30-minute intravenous infusion time. Therefore, 30 minutes will be added to each sample time point postdose to obtain nominal time for TK analysis. Nominal times and dosage levels will be used for all calculations. Values below the lower limit of quantitation (BLQ) will be assigned a value of zero for the pharmacokinetic calculations. Microsoft® Excel® 2013 will be used for receipt of bioanalytical data, minor formatting, including setting BLQ values to “0”, transfer into WinNonlin® for PK analysis, and calculation of the mean when an approximated value will be excluded. All plasma concentration data from all animals will be included in the analysis. Graphical presentations will be performed using Microsoft® Excel® 2013.

RRWVRRVRRVWRRVVRVVRRWVRR-NH2 (C-terminus assumed) [SEQ ID NO: 1]
MIC [1]: 2 µg/mL
MIC [2]: 8 µg/mL
MIC [3]: 4 µg/mL
MIC [4]: 2 µg/mL
MIC [5]: 4 µg/mL
MIC [6]: 8 µg/mL
MIC [7]: 2 µg/mL
MIC [8]: 8 µg/mL
MIC [9]: 8 µg/mL
MIC [10]: 4 µg/mL
MIC [11]: 8 µg/mL
MIC [12]: 4 µg/mL
MIC [13]: 4 µg/mL
MIC [14]: 8 µg/mL
MIC [15]: 16 µg/mL
MIC [16]: 8 µg/mL
MIC90 [17]: 4 µg/mL
Mode (MIC) [17]: 4 µg/mL
MIC90 ([17]; Acinetobacter colistin-resistant (COL^R) isolates, n 21): 16 µg/mL
MIC90 [18]: 4 µg/mL
Mode (MIC) [18]: 2 µg/mL
MIC90 ([19]; K. pneumoniae colistin-resistant (COL^R) isolates, n 28): 16 µg/mL
Mode (MIC) ([19]; n = 101): 8 µg/mL
MIC90 [20]: 16 µg/mL
AUCIinf_D ([21]; IV Dose 3 mg/kg): <3500 kg·ng·h/mL/ng
AUCinf ([21]; IV Dose 3 mg/kg): <3500 ng·h/mL
Extrapolated ([21]; IV Dose 3 mg/kg): ~0.5%
MRTlast ([21]; IV Dose 3 mg/kg): ~0.5 h
T1/2 ([21]; IV Dose 3 mg/kg): ~8 h
AUCIinf_D ([21]; IV Dose 15 mg/kg): 3589 kg·ng·h/mL/ng
Extrapolated ([21]; IV Dose 15 mg/kg): 0.49%
